Patent publication US6794148B2, “High speed, automated, continuous flow, multi-dimensional molecular selection and analysis” (PerSeptive Biosystems, Inc., priority 1995, dated 2004)

Tests used:
LPS (serotype O55;B5) = assay: LPS binding, tandem weak anion exchange / reverse phase columns with varied wash volumes; conditions: for wash volumes of column 1 needed to reduce peak by 50%: 1 CV=1.66 ml, 50 mM Tris pH 6.7; for retention on weak anion exchange column 1: with/without preincubation with LPS
Source text: We used a tandem column method employing POROS™ columns on a BioCAD™ 20 Workstation. Column 1 was a weak anion exchange column (PI/M; 4.6×100 mm) while column 2 was a reverse phase column (R2/H; 4.6×100 mm). […] LPS, however, would be expected to interact with this column due to the presence of two charged phosphate groups at the lipid A region of the molecule. […] Material retained on column 1 was eluted directly onto column 2 where it was captured. Elution of column 2 allowed the resolution of peaks arising from column 1.
Screening the library for binding to LPS was performed as follows. The cationic fraction of the XXXFL library was incubated (30 min/RT) with 1-3 mg/ml of LPS (serotype O55;B5; Sigma Chemical Co., St. Louis, Mo.) in 50 mM Tris, pH 6.7. At this time the incubation mixture was injected and run over column 1 on the BioCAD™ Workstation (equilibrated in the same buffer). The column was run at 4 ml/min. After washing with the appropriate number of column volumes of equilibration buffer (1 CV=1.66 ml), the column was purged and eluted (using 8 mM HCl, 1M NaCl) directly onto column 2 by switching the latter column in line with column 1 during the elution process. Material captured on column 2 was eluted using a gradient from 12 mM HCl in water to 80% ACN, 6 mM HCl. Peaks were collected, further purified by rerunning on a vydac C-18 column (4.6×250 mm), and analyzed by Mass Spectrometry (on a Voyager™ MALDI-TOF instrument; PerSeptive Biosystems, Framingham, Mass.) and peptide sequencing (Hewlett Packard). Peptides identified were synthesized and binding of these molecules to the Lipid A region of the LPS was confirmed by measuring the ability of PmxB or Pentamidine to compete with the peptide for this site.
The number of wash volumes required to reduce the peak for these agents correlated with the reported affinities of these agents for LPS; PmxB (Kd […]) was reduced 50% after 42 CVs washing of column 1 while pentamidine (Kd 100 nM) required a higher number of washes for a similar reduction (46 CVs). Using this methodology we could rapidly examine which peaks from the library were capable of binding to LPS with the highest affinity since, upon exposure to higher numbers of wash volumes only the peptides with higher affinity for the target were retained. […] Three such peaks from the XXXFL library and 3 peaks from the CXXXC library were further purified and characterized by MS and peptide sequencing. […] The other peptides will be synthesized and studied in a similar manner although another approach being considered is that a sublibrary of the format ZZZFL (where Z represents either R or K) be screened to identify the member with the highest affinity. Candidates purified from the cyclic library are still awaiting sequencing.

LPS = conditions: read-out: Kd for LPS (reported affinity); cited from earlier work
mouse IgG (Fc fragment) = assay: Solution phase peptide screening (SEC - reversed phase) of protein A and G digests; assay type: binding; conditions: native and denatured recombinant protein A and G digests
Procedure: 5 mg each of either mouse IgG (whole) or the Fc fragment was incubated with 20 mg of natural library and protein A and G digests, respectively. The mixture was dissolved in 1 ml of a mixture of 25 mM sodium phosphate buffer and 0.15 M NaCl (pH 7) overnight at 4° C. After incubation, several chromatographic runs through the Superdex SEC and RP columns were conducted with 200 of the protein and peptide mixture injected through the Superdex column during each run. The flow rate for the Superdex column was 0.75 m/min with the 25 mM sodium phosphate buffer and 0.15 M NaCl (pH 7) mixture. The early eluting protein peak was collected directly onto the RP column. The remaining portion of the peak was washed off the SEC. The mouse IgG (whole) or Fc fragment and its associated peptides were then eluted from the RP column under the following conditions:
Fractions corresponding to bound peptide peaks were lyophilized and redissolved in 1001 of 0.1% TFA/DIW for mass spec analysis by MALDI-TOF.

Concanavalin A (Con A) [1] = test system: Concanavalin A (Con A)
Source text: (§1) The lectin Concanavalin A (Con A) has been used. Ligands were screened for specific binding to the sugar site of Con A as an example of the bimolecular approach to screening a mixture of components for interaction with a target. Biotinylated succinyl Con A was immobilized onto a streptavidin POROS™ support (BA cartridge, 2.1×30 mm). […] After exposing the column to 10 CVs of CAB buffer (0.2 m/min.), the remaining peptides were acid eluted onto a RP column. These peptides were eluted from a RP HPLC column using an acetonitrile gradient and the fractions were collected, pooled and sequenced. Recovery of each amino acid was expressed as a percentage of the total amount of amino acids recovered at each cycle of sequencing (AA %). Amino acid enrichment was then expressed for each amino acid as follows: [formula]

Concanavalin A (Con A) [2] = target: Concanavalin A (Con A) (Canavalia ensiformis, UniProt P02866)
Source text: as §1

IgG = IgG purification from human serum on POROS-immobilized peptide column; assay type: binding
Procedure: 1 g POROS™ AL (aldehyde) was suspended in 10 mM PBS (pH 7.5) containing 100 mg sodium cyanoborohydride (NaCNBH3). 5 to 20 mg of each of the peptides selected by various screening procedures was added to the resin and the mixture was shaken overnight at room temperature. 100 mg sodium borohydride (NaBH4) was then added and the mixture was shaken for another 2 hrs. The beads were then washed with PBS and packed into 4.6 mm D×100 mm L column using POROS™ Self Pack® device.
100 μl of 1:10 diluted serum was injected onto the peptide column which was equilibrated with 20 mM tris (pH 8.0) at 5 ml/min. The bound proteins were eluted with 0-1 M NaCl gradient in 15 CVs. Fractions were collected manually and concentrated by Speed Vac for subsequent analysis by SDS-polyacrylamide gel electrophoresis.
The […] (SEQ ID NO: 8) peptide with heme group was immobilized on POROS™AL® (aldehyde) via the N-terminal end. This POROS™-peptide conjugate was used to separate IgG from serum at pH 8 under a 0-1 M NaCl gradient. […] To determine the nature of interaction, the purification profile of IgG separated on the POROS™-peptide column was compared with the IgG purified on standard ion exchange columns such as POROS™-CM and POROS™ HQ. […] The effect of the varying loading densities of peptide (from 10 mg/g POROS™ to 100 mg/g POROS™) on specificity and capacity for IgG binding was also investigated. The specificity of the peptide for IgG binding was also investigated. […] At low loading density (10 mg/g POROS™) IgG bound primarily via ionic interaction requiring elution of bound IgG with salt gradient. At higher loading density ([…]) IgG bound strongly and eluted with acid buffer. The binding capacity varied from 1-2 mg/ml column volume at lower ligand density to 30 mg/ml column volume at higher ligand densities.
A simplified analog of the heme peptide ([…]) (SEQ ID NO: 9) was synthesized and immobilized on POROS™ AL via the N-terminal end. […] The bound IgG was eluted from the GAQGHTVBK (SEQ ID NO: 9)-POROS™ column with 100 mM NaCl. The IgG binding capacity was determined to be 5 mg/ml column volume. Loading densities from 20 mg/g to 40 mg peptide /g POROS™ were evaluated. At these ligand densities, the specificity of IgG binding was not affected, but the capacity was reduced.

[3] = test system: monoclonal antibody (mouse IgG2a, clone 3E-7) raised against human β-endorphin; assay: Peptide binding to immobilized anti-β-endorphin mAb affinity column in tandem with C-18 column
Procedure: The purchased mAb (280 mg resuspended in 1 ml H2O) was passed over an XL cartridge (2.1×30 mm) consisting of protein-G coupled to POROS™ perfusion chromatographic media (PerSeptive Biosystems, Framingham, Mass.) by making […] injections on a BioCAD™ 20 Workstation (PerSeptive Biosystems, Framingham, Mass.). Protein-G binds to the Fc region of antibodies with high affinity. The mAb was subsequently cross-linked to the protein G using the standard methods and materials provided with the XL column. In brief, this consisted of passing 14 ml of cross-linking solution (100 mM triethanolamine, pH 8.5, 7.8 mg/ml dimethyl pimelimidate (DMP)) over the column at a flow rate of 0.5 ml/mm. The cross-linking reagent was quenched by subsequent injection of 2 ml of 100 mM monoethanolamine, pH 9.0. The sensor cartridge was washed with PBS, pH 7.4 at 0.5 ml/min for 2 min followed by a further injection of 2 ml of quench solution and washed as above. […] A second XL column (without antibody) was treated with cross-linking reagents and washed as for the affinity column for use as a “control column”.
The target immobilized affinity column prepared above was plumbed in tandem mode to a vydac reversed phase C-18 column on a BioCAD™ Workstation using the configuration shown in FIG. 5. This configuration allowed independent equilibration and washing of the affinity and vydac columns while allowing in line elution of material bound to the mAb-column directly onto the vydac column. The reverse phase vydac column could then be eluted independently of the affinity column.
This reversed phase column was then developed with a gradient of acetonitrile (4% ACN/12 mM HCl to 80% ACN/6 mM HCl over 18 min; flow rate 1 ml/min). Both columns were re-equilibrated in their respective starting buffers prior to the next injection.
The peptide solution (20 nmol) was injected onto the affinity column and then unbound peptide was removed by washing the column with PBS, pH, 7.4. Peptides affinity captured by the antibody was eluted from the “target column” directly onto the C-18 column for resolution.

[4] = target: Monoclonal antibody (mAb), mouse IgG2a, clone 3E-7, raised against human β-endorphin (mouse); assay: 20 nmol peptide injected on immobilized mAb column, acid eluted onto C-18 column; peak area
[5] = target: Monoclonal antibody (mAb), mouse IgG2a, clone 3E-7, raised against human β-endorphin (mouse); assay: increasing quantities of peptide injected on immobilized mAb column; peak height on C-18 column
[6] = target: human IgG (whole), pure or from human serum (human); assay: peptide immobilized on POROS AL via the N-terminal end; IgG binding capacity of the column

## N=C(N)c1ccc(OCCCCCOc2ccc(C(=N)N)cc2)cc1 [pentamidine]
LPS (serotype O55;B5)
  wash volumes of column 1 needed to reduce peak by 50%: 46 CVs
  retention on weak anion exchange column 1: retained on column 1 under the conditions used only after preincubation in the presence of LPS
LPS
  Kd: 100 nM

## EKEPEVID (OTHER INFORMATION: Description of Artificial Sequence: Protein fragment derived from the tryptic digest of protein A and G) [peptide from recombinant Protein G digest]
Mouse IgG (Fc fragment)
  selected as binder in solution phase screening: identified

## GDAPTPEKEPEASI (OTHER INFORMATION: Description of Artificial Sequence: Protein fragment derived from the tryptic digest of protein A and G) [peptide from recombinant Protein G digest]
Mouse IgG (Fc fragment)
  selected as binder in solution phase screening: identified

## HHRSY
Concanavalin A (Con A) [1]
  binding to control column: little binding to the control column
Concanavalin A (Con A) [2]; high concentration of competing sugar ligand
  displacement by competing sugar ligand: displaced somewhat
Concanavalin A (Con A) [2]; synthesized peptide
  binding to Con A immobilized on the column: capable of binding specifically to Con A

## KKRFL (OTHER INFORMATION: Description of Artificial Sequence: synthetic peptide)
LPS (serotype O55;B5)
  affinity for LPS relative to Pentamidine: much lower than the latter molecule
LPS (serotype O55;B5); competition experiment with Pentamidine
  competition for LPS binding: displaced by Pentamidine
LPS (serotype O55;B5); synthesized peptide, same paradigm
  binding to LPS: demonstrated to bind to LPS

## TVTEK (OTHER INFORMATION: Description of Artificial Sequence: Protein fragment derived from the tryptic digest of protein A and G)
IgG; salt gradient suffices for elution
  IgG binding affinity relative to proteins A & G: bind IgG, but with less affinity

## TVTEKPE (OTHER INFORMATION: Description of Artificial Sequence:Protein fragment derived from the tryptic digest of protein A and G) [peptide from recombinant Protein G digest]
Mouse IgG (Fc fragment)
  selected as binder in solution phase screening: identified

## TVTEKPEV (immobilized on POROS; OTHER INFORMATION: Description of Artificial Sequence: Synthetic peptide corresponding to a part of the Fc binding domain of recombinant protein G)
IgG; pH 8, immobilized on POROS via N-terminal end
  specificity of IgG binding from human serum: comparable specificity as the POROS™-Protein A conjugate

## YEYFL (OTHER INFORMATION: Description of Artificial Sequence: synthetic peptide)
[3]; parallel experiment
  retention by the mAb affinity column: not retained

## YGGFL
[3]; 20 nmol injected, PBS pH 7.4 wash, eluted onto C-18
  amount of the peptide recovered from affinity column, calculated from peak area: approximately 1.2 nmoles
[3]; flow rate 0.2 ml/min to 5 ml/min
  effect of injection flow rate on amount of peptide bound/recovered: did not affect the recovery
[3]; increasing quantities injected
  amount of bound peptide at saturation, calculated from peak height: about 1.2 nmoles

## polymyxin B
LPS (serotype O55;B5)
  wash volumes of column 1 needed to reduce peak by 50%: 42 CVs
  retention on weak anion exchange column 1: retained on column 1 under the conditions used only after preincubation in the presence of LPS

## synthetic peptide YGGFL (SEQ ID NO: 1)
[4]
  amount of the peptide recovered: 1.2 nmol
[5]
  amount of the bound peptide at saturation: 1.2 nmol

## GAQGHTVEK [… (SEQ ID NO: 9), simplified analog of the heme peptide]
[6]
  IgG binding capacity (mg/ml column volume): 5
